SMILES strings stand for the structures.

For orientation: melting point means the temperature of the solid-liquid transition. For orientation: boiling point means the temperature of boiling at a given pressure.

Details in one data set: not given
On to `CCC(C)(CC)OC(N)=O`, for which the log10 vapour pressure (mmHg) was -0.155 and the melting point was determined as 56 °C.

`CCCCOCCCC`: the boiling point was determined as 141 °C, the log10 Henry constant (atm·m³/mol) is -2.22, the log10 Koa was determined as 3.89 and the log10 vapour pressure (mmHg) came to 0.779. Also, the ready biodegradability entry was “not readily biodegradable”.

On to `Nc1ccc(C(=O)O)cc1`, for which the log10 Koc (L/kg) worked out at 2.5, the melting point came out at 188 °C and the ready biodegradability result is “readily biodegradable”.

`FC(F)=C(F)Br` registered a boiling point of -1 °C and a log10 vapour pressure (mmHg) of 3.29.

With `O=P1(N(CCCl)CCCl)NCCCO1` (centres undefined), the melting point was 51.5 °C and the ready biodegradability result is reported as “not readily biodegradable”.

In the case of `ClC(c1ccccc1)(c1ccccc1)c1ccccc1`, the boiling point is 310 °C, the melting point was 114 °C and the ready biodegradability result was “not readily biodegradable”.

As to `CC(C)C(=O)OCC(C)(C)C(O)C(C)C` (centres undefined), the ready biodegradability result was “readily biodegradable”.

In turn, `CCc1cc(C)cc(CC)c1` came in with a boiling point of 205 °C, a log10 vapour pressure (mmHg) of 0.0017 and a melting point of -74.1 °C.

Take `CCOCc1ccccc1`: the boiling point was 186 °C and the log10 vapour pressure (mmHg) was -0.0339.

On to `N#Cc1ccccc1C(F)(F)F`, for which the boiling point was 205 °C and the melting point was 18 °C.

`Cl.Cl.NCCc1c[nH]cn1` came in with a melting point of 250 °C.

The molecule `COc1ccc2c3c1O[C@H]1C(=O)CC[C@@]4(O)[C@@H](C2)N(C)CC[C@]314` showed a melting point of 219 °C.

Take `CC=CC(C)C(C)C=CC` (centres undefined): the boiling point was found to be 154 °C and the melting point was -64.8 °C.

In turn, `CNc1ccccc1[N+](=O)[O-]` registered a melting point of 38 °C.

Molecule `N#CCc1ccccc1Cl` displayed a boiling point of 251 °C and a melting point of 24 °C.

As to `CCNc1nc(NC(C)C(C)C)nc(SC)n1` (centres undefined), the log10 vapour pressure (mmHg) was -5.85 and the melting point was 65 °C.

`OCc1ccc(Cl)c(Cl)c1` showed a boiling point of 150 °C and a melting point of 36 °C.

`Clc1cc2c(cc1Cl)Oc1cc(Br)c(Br)cc1O2` yielded a log10 vapour pressure (mmHg) of -8.33 and a melting point of 316 °C.

`CCOc1ccccc1O` had a boiling point of 217 °C and a melting point of 29 °C.

Take `CCCCCCOC(=O)CCCCCCCC(=O)OCCCCCC`: the melting point is -8 °C.

`C=C(C)c1ccc(C(C)C)cc1`: the boiling point was determined as 221 °C and the melting point was -30.6 °C.

In the case of `O=C1c2ccccc2C(=O)c2cc(Cl)ccc21`, the melting point was 211 °C and the ready biodegradability entry was “not readily biodegradable”.

Regarding `CC(C)c1ccc(N)cc1`, the boiling point came to 225 °C, the log10 vapour pressure (mmHg) was -1.08 and the ready biodegradability entry is “not readily biodegradable”.

Turning to `O=C(Nc1ccccc1)NC1CCCCCC1`, the log10 Koc (L/kg) is 2.37.

With `CCN(CC)CCN`, the boiling point was 144 °C.

In the case of `CF`, the boiling point is -78.4 °C, the log10 vapour pressure (mmHg) was found to be 3.46 and the melting point is -142 °C.

Regarding `C[C@]12C[C@H](O)[C@H]3[C@@H](CCC4=CC(=O)CC[C@@]43C)[C@@H]1CC[C@@H]2C(=O)CO`, the melting point was 181 °C.

`CCCCOC(=O)c1ccc(N)cc1`: the melting point is 58 °C.

`CCCCCCCC1CCCC(=O)O1` (centres undefined) returned a melting point of -12 °C.

For `CC1CCCCCC1`, the boiling point was determined as 134 °C.

As to `O=C(Nc1ccccc1)c1cc2ccccc2cc1O`, the melting point was determined as 248 °C and the ready biodegradability entry was “not readily biodegradable”.

With `C#CC(C)(O)c1ccccc1` (centres undefined), the boiling point came out at 218 °C and the melting point worked out at 52.3 °C.

With `CC12CC3CC(C)(C1)CC(N)(C3)C2`, the melting point came to 258 °C.

In the case of `Cc1cn([C@H]2C[C@H](O)[C@@H](CO)O2)c(=O)[nH]c1=O`, the melting point stood at 186 °C.

For `c1ccc2c(c1)ccc1ncccc12`, the boiling point was 352 °C, the log10 Koc (L/kg) was 4.64, the log10 vapour pressure (mmHg) was -4.25 and the melting point was 94 °C.

For `CN(C)CCN`, the boiling point was 105 °C and the ready biodegradability entry is reported as “not readily biodegradable”.

Regarding `Nc1ccc(S(=O)(=O)F)cc1`, the melting point amounted to 68.5 °C.

The molecule `CCOCCOC(=O)c1ccccc1C(=O)OCCOCC` gave a boiling point of 345 °C and a melting point of 34 °C.

`Cl.Nc1ccc(N=Nc2ccccc2)c(N)c1` came in with a melting point of 118 °C.

Regarding `O=[N+]([O-])c1ccc2c(c1)Cc1cc([N+](=O)[O-])ccc1-2`, the melting point is 334 °C.

The molecule `Brc1cccs1` showed a boiling point of 150 °C and a log10 vapour pressure (mmHg) of 1.37.

Consider `CCCCOCCOCC(C)O` (centres undefined), for which the boiling point came to 230 °C.

The molecule `CCCCCCCCCCCCCCCCCc1ccccc1` registered a boiling point of 397 °C and a melting point of 32 °C.

In the case of `CC1CCCCCC1=O` (centres undefined), the boiling point was 185 °C.

`CC(=O)OC(C)(C)C` displayed a boiling point of 97 °C and a log10 vapour pressure (mmHg) of 1.67.

In turn, `CC[C@]1(O)CC[C@H]2[C@@H]3CCC4=CC(=O)CC[C@@H]4[C@H]3CC[C@@]21C` returned a melting point of 140 °C.

As for `ON=C1CCCC1`, the boiling point came out at 196 °C and the melting point stood at 57.8 °C.

The molecule `O=C(Cl)c1cccc(C(=O)Cl)c1` displayed a boiling point of 276 °C and a melting point of 43.5 °C.

`CCc1nc2ccccc2[nH]1`: the melting point came out at 175 °C.

As for `Cc1ccc(Cl)c(N)c1`, the boiling point was 229 °C and the melting point stood at 29.5 °C.

`O=C(Nc1ccccc1)c1cc(Cl)ccc1O` showed a melting point of 211 °C.

As for `Cc1cc(O)cc(Br)c1`, the melting point was 56.5 °C.

`COBOC`: the boiling point stood at 25.9 °C and the melting point was -131 °C.

Consider `CCCCCCCCON=O`, for which the boiling point was found to be 174 °C.

Turning to `C=C(C)CC(C)C`, the boiling point was found to be 81.6 °C, the log10 vapour pressure (mmHg) was found to be 1.98 and the melting point was -124 °C.

`NC(=O)CCCCC1CCSS1` (centres undefined) came in with a melting point of 128 °C.

Turning to `C=CC12CN(C)C3C4COC(CC41)[C@]1(C(=O)Nc4ccccc41)C32` (some centres undefined), the melting point amounted to 178 °C.

In the case of `C#CCl`, the boiling point is -30 °C and the melting point is -126 °C.

In turn, `COc1cnc(NS(=O)(=O)c2ccc(N)cc2)nc1` registered a melting point of 215 °C.

`CC(=O)CC(=O)Nc1ccc(-c2ccc(NC(=O)CC(C)=O)c(C)c2)cc1C`: the melting point is 212 °C and the ready biodegradability entry is “not readily biodegradable”.

In turn, `c1ccc2c(c1)sc1ccccc12` registered a boiling point of 332 °C, a log10 Koc (L/kg) of 4.05, a log10 biodegradation half-life (days) of 1.56 and a log10 vapour pressure (mmHg) of -3.69. The melting point worked out at 97 °C and the ready biodegradability result is on record as “not readily biodegradable”.

Molecule `Cn1cccn1` returned a boiling point of 127 °C.

In the case of `O=CC(Cl)(Cl)Cl`, the boiling point amounted to 97.8 °C, the log10 Henry constant (atm·m³/mol) was -8.54, the log10 vapour pressure (mmHg) amounted to 1.7 and the melting point is -57.5 °C. In addition, the ready biodegradability entry is “not readily biodegradable”.

`O=C(O)/C=C/CCCCCCCCC(=O)O` registered a melting point of 166 °C.

Take `CCOC(=O)CCC(C)=O`: the boiling point came to 206 °C and the log10 vapour pressure (mmHg) was -0.682.

As to `CC(C)(OO)c1ccccc1`, the log10 vapour pressure (mmHg) was -2.49, the melting point is -9 °C and the ready biodegradability result is reported as “not readily biodegradable”.

`N#Cc1cccc(C(=O)O)c1` yielded a melting point of 219 °C.

The same data set, now with this note: fish.
Molecule `Clc1cc2ccccc2c2ccccc12` displayed a log10 BCF of 3.49 and a log10 biotransformation half-life (days) of 1.8.

Take `CCCCOCCCC`: the log10 BCF stood at 1.86 and the log10 biotransformation half-life (days) is -0.25.

As to `ClC(c1ccccc1)(c1ccccc1)c1ccccc1`, the log10 BCF was found to be 2.63 and the log10 biotransformation half-life (days) was -0.15.

In the case of `OCc1ccc(Cl)c(Cl)c1`, the log10 BCF was found to be 0.54.

`O=C1c2ccccc2C(=O)c2cc(Cl)ccc21` had a log10 BCF of 2.28 and a log10 biotransformation half-life (days) of -0.36.

As to `O=C(Nc1ccccc1)c1cc2ccccc2cc1O`, the log10 BCF was determined as 0.81.

The molecule `Clc1ccc(Oc2cc(Cl)c(Cl)cc2Cl)cc1` came in with a log10 biotransformation half-life (days) of 1.93.

`CC(=O)CC(=O)Nc1ccc(-c2ccc(NC(=O)CC(C)=O)c(C)c2)cc1C` showed a log10 BCF of 0.2 and a log10 biotransformation half-life (days) of -1.5.

As for `c1ccc2c(c1)sc1ccccc12`, the log10 BCF was found to be 3.05 and the log10 biotransformation half-life (days) stood at 0.83.
